ChEMBL document CHEMBL1201862, “PubChem BioAssay data set” (2004)
Several values for one entry are separate records, joined by “and”; a condition that tells them apart may be missing. Equal values may be shown once.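 Exposure lasted 48 hours, with cells grown in 96-well plates and compounds tested at five concentrations. The concentration for 50% growth inhibition is given as GI50.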 Activity calls are given as the source filed them. No stated cut-off is given here; in the data, active = GI50 up to about 1.1 µM and inactive = higher.

How the values were obtained:
Experiment in all cases: growth of human tumour cells (NCI), 48 h
NCI-H522 = tested on: NCI-H522
NCI-H460 = tested on: NCI-H460
SK-MEL-5 = tested on: SK-MEL-5
NCI-H23 = tested on: NCI-H23
OVCAR-8 = tested on: OVCAR-8
ACHN = tested on: ACHN
SK-MEL-2 = tested on: SK-MEL-2
786-0 = tested on: 786-0
CAKI-1 = tested on: CAKI-1
RXF 393 = tested on: RXF 393
T47D = tested on: T47D
MCF7 = tested on: MCF7
IGROV-1 = tested on: IGROV-1
RPMI-8226 = tested on: RPMI-8226
DU-145 = tested on: DU-145
PC-3 = tested on: PC-3
A498 = tested on: A498
COLO 205 = tested on: COLO 205
SR = tested on: SR
MDA-N = tested on: MDA-N

SMILES | GI50 (NCI-H522) | GI50 (NCI-H460) | GI50 (SK-MEL-5) | GI50 (NCI-H23) | GI50 (OVCAR-8) | GI50 (ACHN) | GI50 (SK-MEL-2) | GI50 (786-0) | GI50 (CAKI-1) | GI50 (RXF 393) | GI50 (T47D) | GI50 (MCF7) | GI50 (IGROV-1) | GI50 (RPMI-8226) | GI50 (DU-145) | GI50 (PC-3) | GI50 (A498) | GI50 (COLO 205) | GI50 (SR) | GI50 (MDA-N)
ClCCCc1ccccc1C1=NCCc2ccccc21 | 25.5 µM (inactive) | 43.9 µM (inactive) | 9.73 µM (inactive) | 15.8 µM (inactive) | 24.9 µM (inactive) | > 100 µM (inactive) | > 100 µM (inactive) | > 100 µM (inactive) | > 100 µM (inactive) | > 100 µM (inactive) | 31.3 µM (inactive) | 66.2 µM (inactive) | 98.9 µM (inactive) | 3.21 µM (inactive) | > 100 µM (inactive) | 36.5 µM (inactive) | > 100 µM (inactive) | 22 µM (inactive) | – | –
CC(=O)NCCSC(=O)c1ccccc1 | 0.215 µM (active) | < 0.033 µM (active) | 0.0171 µM (active) | 0.0559 µM (active) | 0.192 µM (active) | < 0.0195 µM (active) | 0.295 µM (active) | 0.0506 µM (active) | 0.0226 µM (active) | 0.112 µM (active) | 0.197 µM (active) | 0.0653 µM (active) | 1.69 µM (inactive) | 0.131 µM (active) | 0.199 µM (active) | 0.525 µM (active) | – | 0.158 µM (active) | 0.0146 µM (active) | –
CC(C)(O)c1cc2c(cc1C(C)(C)O)-c1ccccc1-2 | > 100 µM (inactive) | > 100 µM (inactive) | > 100 µM (inactive) | – | > 100 µM (inactive) | 85.3 µM (inactive) | > 100 µM (inactive) | 79.8 µM (inactive) | > 100 µM (inactive) | 71.9 µM (inactive) | > 100 µM (inactive) | > 100 µM (inactive) | > 100 µM (inactive) | > 100 µM (inactive) | > 100 µM (inactive) | > 100 µM (inactive) | > 100 µM (inactive) | > 100 µM (inactive) | > 100 µM (inactive) | –
C=C1C(C)C2C(Cc3ccccc3)NC(=O)C23OC(=O)/C=C\CC(=O)CCC(C)C/C=C/C3C1O (stereo not drawn) | 0.859 µM (active) | 5.85 µM (inactive) | 3.71 µM (inactive) | 3.1 µM (inactive) | 2.54 µM (inactive) | – | 1.58 µM (inactive) | 0.438 µM (active) | 0.421 µM (active) | 0.43 µM (active) | 0.635 µM (active) | – | 3.42 µM (inactive) | – | – | – | 1.37 µM (inactive) | 1.34 µM (inactive) | – | –
CCN(CC)/N=N/c1c(C(N)=O)n[nH]c1C | 65.2 µM (inactive) | 31.2 µM (inactive) | 33.7 µM (inactive) | 36.9 µM (inactive) | 49.4 µM (inactive) | 32.8 µM (inactive) | > 100 µM (inactive) | 29.6 µM (inactive) | 17.9 µM (inactive) | > 100 µM (inactive) | 60.3 µM (inactive) | 30.5 µM (inactive) | > 100 µM (inactive) | 44.2 µM (inactive) | 69.5 µM (inactive) | > 100 µM (inactive) | > 100 µM (inactive) | 52.5 µM (inactive) | – | –
COc1cccc2c1C(=O)c1c(O)c3c(c(O)c1C2=O)C[C@@](O)(C(=O)CO)C[C@@H]3OC1CC(N)C(O)C(C)O1 (stereo partly drawn) | – | – | 114 nM (active) and 72.8 nM (active) | 76.4 nM (active) and 105 nM (active) | 200 nM (active) and 136 nM (active) | 0.255 µM (active) | 252 nM (active) and 203 nM (active) | 102 nM (active) and 57.5 nM (active) | 269 nM (active) and 176 nM (active) | – | 94.2 nM (active) and 94 nM (active) | 0.0169 µM (active) | – | 55.3 nM (active) and 43.9 nM (active) | – | 237 nM (active) and 255 nM (active) | – | – | 10 nM (active) and 12.2 nM (active) | –
O=C1CCCC2=C1CC1=C(CCCC1=O)N2c1ccccc1 | – | > 100 µM (inactive) | > 100 µM (inactive) | > 100 µM (inactive) | > 100 µM (inactive) | > 100 µM (inactive) | – | > 100 µM (inactive) | > 100 µM (inactive) | 40.7 µM (inactive) | – | > 100 µM (inactive) | > 100 µM (inactive) | > 100 µM (inactive) | – | > 100 µM (inactive) | > 100 µM (inactive) | – | > 100 µM (inactive) | –
C=C(CCCCC)CN1CCCC1[C@@](C)(O)CC(=O)OCC (stereo partly drawn) | > 100 µM (inactive) | > 100 µM (inactive) | > 100 µM (inactive) | > 100 µM (inactive) | > 100 µM (inactive) | > 100 µM (inactive) | > 100 µM (inactive) | > 100 µM (inactive) | > 100 µM (inactive) | > 100 µM (inactive) | – | – | > 100 µM (inactive) | > 100 µM (inactive) | – | – | > 100 µM (inactive) | > 100 µM (inactive) | 71.8 µM (inactive) | –
CN(C)CCCc1c2ccccc2nc2ccc(Cl)cc12 | 14.2 µM (inactive) | 12.1 µM (inactive) | 14.4 µM (inactive) | 30.3 µM (inactive) | 15.9 µM (inactive) | 14.9 µM (inactive) | 19.9 µM (inactive) | 11.7 µM (inactive) | 15.2 µM (inactive) | 14.1 µM (inactive) | 36.5 µM (inactive) | 6.76 µM (inactive) | 16.4 µM (inactive) | 21.3 µM (inactive) | 21.4 µM (inactive) | 16.8 µM (inactive) | 19.2 µM (inactive) | 14.9 µM (inactive) | 18.5 µM (inactive) | –
C/C1=C\[C@H](C)C[C@H](C)OC(=O)C[C@H](c2ccc(O)cc2)NC(=O)[C@H](Cc2ccc(O)c(I)c2)N(C)C(=O)[C@H](C)NC(=O)[C@@H](C)C1 | 0.0818 µM (active) | – | 0.0169 µM (active) | 2.79 µM (inactive) | 0.0137 µM (active) | 0.00832 µM (active) | 0.0646 µM (active) | 0.0148 µM (active) | – | – | – | 0.019 µM (active) | 0.0121 µM (active) | 0.0108 µM (active) | 0.0183 µM (active) | 0.0608 µM (active) | 0.016 µM (active) | 0.0161 µM (active) | 0.0968 µM (active) | 0.0412 µM (active)
Cc1nc2c(s/c(=N\N)n2-c2ccccc2)c(=O)n1C | > 100 µM (inactive) | > 100 µM (inactive) | > 100 µM (inactive) | > 100 µM (inactive) | > 100 µM (inactive) | > 100 µM (inactive) | > 100 µM (inactive) | > 100 µM (inactive) | > 100 µM (inactive) | > 100 µM (inactive) | – | – | > 100 µM (inactive) | > 100 µM (inactive) | – | – | > 100 µM (inactive) | > 100 µM (inactive) | > 100 µM (inactive) | –
Nn1c(CCCCCCCCc2nnc(COc3ccc(Cl)cc3Cl)n2N)nnc1COc1ccc(Cl)cc1Cl | 17.3 µM (inactive) | 63.8 µM (inactive) | 38.5 µM (inactive) | 38 µM (inactive) | – | 44.9 µM (inactive) | 42 µM (inactive) | 63.5 µM (inactive) | 41.9 µM (inactive) | 38.5 µM (inactive) | – | 34.9 µM (inactive) | 6.43 µM (inactive) | 21.6 µM (inactive) | 42.9 µM (inactive) | 31 µM (inactive) | 45.3 µM (inactive) | 25.8 µM (inactive) | – | 62.5 µM (inactive)
